Where two headings read alike, the source gives them in different places.
Legend:
[1] = Blood PK of Trehalose after IV and PO administration, with and without PO Miglustat (LC-MS/MS); type: in vivo, mouse; details: for Cmax / Tmax / AUC(0-inf): male, C57BL6/N, mouse, whole blood; for AUC(0-inf): read-out: AUC0-inf of Trehalose in blood (converted)
Experimental: (§1) LC-MS/MS bioanalytical methodologies were developed for the analysis of Trehalose, Miglustat and glucose in mouse whole blood and brain.
Blood samples were prepared as follows; 20 μL of whole blood was transferred to a 96 wellplate and diluted 1:1 with sterile distilled water. Samples were protein precipitated by addition of 160 μL of 2.5% of trichloroacetic acid (TCA). At the time of analysis, 1 volume of acetonitrile containing an internal standard was added in order to match the initial chromatography conditions, samples were centrifuged at 4350 rpm for 10 min at ambient temperature, and the resultant supernatant transferred for analysis on the LC-MS/MS.
(§2) The purpose of this example was to compare the blood PK of unlabelled high doses of Trehalose after IV and PO administration, with and without Miglustat PO dosing. For the IV comparison, Trehalose was dosed as an IV bolus dose 15 min after PO dosing of Miglustat. For the PO comparison Miglustat was dosed simultaneously with Trehalose. Fasted male C57BL6/N mice were dosed as detailed in Table III:
Blood samples were collected at pre-dose, 10, 20, 30, 60, 120 and 180 min post-dose for group 1 and 2 and at pre-dose, 15, 30, 45, 60, 120 and 180 min post-dose for group 3 and 4.

[2] = at 20° C.; cited from earlier work
[3] = Tissue concentrations of Trehalose (liver, brain) by LC-MS/MS; type: in vivo, mouse
Experimental: as §1
Tissue samples were homogenized in 8 volumes of sterile distilled water and 1 volume of TCA (20% in water) to generate a final concentration of 2% TCA, homogenates were centrifuged at 13000 rpm for 15 min at 4° C. and the supernatant transferred to a fresh plate. At the time of analysis, 1 volume of acetonitrile containing an internal standard was added in order to match the initial chromatography conditions, samples were centrifuged at 4350 rpm for 10 min at ambient temperature, and the resultant supernatant transferred for analysis on the LC-MS/MS.
as §2, with “III: […]” for “III:”

Cln3^Δex7-8 mice = test: Astrocytosis, GFAP immunohistochemistry in brain sections; type: in vivo, mouse
Experimental: Cln3^Δex7-8 mice were obtained from the Jackson Laboratory. Control (C57BL/6J) and Cln3^Δex7-8 mice were housed 3-4 per cage in a room with a 12-h light/12-h dark cycle. Food and water were provided ad libitum. All mice used in this study were analyzed at 8 and 12 months of age and were littermates produced by crossing heterozygous Cln3^Δex7-8 mice. Only males were used for this analysis. Investigators were blinded when analyzing the data, and no randomization was necessary.
For oral administration, Trehalose was dissolved in drinking water to a final concentration of 2% and changed twice a week. Trehalose-containing water was given to Cln3^Δex7-8 mice and WT mice by spontaneous oral administration starting at 21 days of age and continuing until the day the mice were sacrificed for neuropathology studies.
Miglustat was administered in mixture with the food pellet starting at 21 days of age and continuing until the day the mice were sacrificed for neuropathology studies. Miglustat food was prepared by TestDiet using the 5V5R rodent diet (LabDiet). Two concentrations were used: 1.2 g/Kg chow (indicated as “low concentration”) and 7.2 g/Kg chow (indicated as “high concentration”) and two separate groups of Cln3^Δex7-8 mice were fed with either diet. One additional group of Cln3^Δex7-8 l mice was fed with a combination of the low-concentration Miglustat food and 2% Trehalose water.
Twelve-month-old homozygous Cln3^Δex7-8 mice and age-matched controls (WT mice) were anaesthetized with isoflurane and transcardially perfused with PBS followed by 4% buffered paraformaldehyde in 0.1 M sodium phosphate buffer, pH 7.4. Brains were subsequently removed and postfixed overnight. Before sectioning, the brains were cryoprotected in a solution containing 30% sucrose in Tris-buffered saline (TBS: 50 mM Tris, pH 7.6). Consecutive 40 μm floating coronal sections were collected in 96-well plates. Series of sections were then stained with primary antisera against CD68 (AbD
Serotec, Cat. No. MCA1957), GFAP (DAKO, Cat. No. Z0334), Subunit C of mitochondrial ATP synthase (SCMAS; Abcam, Cat. No. ab181243), or cleaved caspase 3 (Asp175) (Cell Signaling, Cat. No. 9661S) followed by either rabbit anti-rat (VectorLab) or swine anti-rabbit (DAKO) secondary antibodies, and immunoreactivity detected with Vectastain ABC (avidin-biotin) kit (Vector) and diaminobenzidine as a chromogen.
Non-overlapping images were captured, on three consecutive sections, through each region of interest. All RGB images were captured via a live video camera (JVC, 3CCD, KY-F55B), mounted onto a Zeiss Axioplan microscope using a x 40 objective and saved as JPEGs. All parameters including lamp intensity, video camera set-up and calibration were maintained constant throughout image capturing. For quantification of storage and inflammation, images were analyzed using ImageJ analysis software (NIH), using an appropriate threshold that selected the foreground immunoreactivity above background. This threshold was then applied as a constant to all subsequent images analyzed per batch of animals and reagent used to determine the specific area of immunoreactivity for each antigen in each region. Data were plotted graphically as the mean percentage area of immunoreactivity per field ±s.e.m. for each region. For quantification of cell death, images were analyzed manually and scored for the presence of apoptotic nuclei. Data were plotted graphically as the mean number of apoptotic cells per field ±s.e.m. for each region. All analyses were performed blind to genotype and treatment.
[…] was also quantified by performing immunohistochemistry staining of brain sections of all test and control mice using anti-GFAP antibodies.

[4] = 1 g/kg trehalose IV + 150 mg/kg miglustat PO
[5] = 10 g/kg trehalose PO + 150 mg/kg miglustat PO
[6] = 1 g/kg trehalose IV + 150 mg/kg miglustat PO, 180 min post-dose
[7] = 1 g/kg trehalose IV, 180 min post-dose

For `OC[C@H]1O[C@H](O[C@H]2O[C@H](CO)[C@@H](O)[C@H](O)[C@H]2O)[C@H](O)[C@@H](O)[C@@H]1O` [Trehalose, α-D-glucopyranosyl α-D-glucopyranoside dihydrate], the “Trehalose fold-change with miglustat dosing” value ([1]; 1 g/kg trehalose IV + 150 mg/kg miglustat PO vs 1 g/kg IV alone) was 1.5, the “increase of measured AUC of Trehalose by combined PO Miglustat” value ([1]; Trehalose via either IV or PO administration) was greater than 1.5 fold and the “detection of Trehalose after oral administration” value ([1]; low doses such as 1 g/kg, oral) was “cannot be detected”. The Cmax ([1]; 1 g/kg trehalose IV) was 3690 ± 153 µM, the Tmax ([1]; 1 g/kg trehalose IV) was 20 min and the Cmax [1, 4] was 5490 ± 873 µM. For the same compound, the Tmax [1, 4] was 20 min, the AUC(0-inf) [1, 4] was 2990 µM·h and the AUC(0-inf) ([1]; 1 g/kg trehalose IV) was 1960 µM·h. It also gave a Cmax [1, 5] of 189 ± 43.9 µM, a Tmax [1, 5] of 15 min and an AUC(0-inf) [1, 5] of 307 µM·h. The Solubility [2] was “Trehalose: 68.9 g/100 g H2O at 20 °C”, the “Concentration of Trehalose, Brain L” value [3, 6] was 10.8 ± 2.0 nmol/g and the “Concentration of Trehalose, Brain R” value [3, 6] was 10.5 ± 1.7 nmol/g. For the same compound, the “Concentration of Trehalose, Liver” value [3, 6] was 278.6 ± 96.6 nmol/g, the “Concentration of Trehalose, Brain L” value [3, 7] was 6.9 ± 1.9 nmol/g and the “Concentration of Trehalose, Brain R” value [3, 7] was 7.3 ± 0.9 nmol/g. For the same compound, the “Concentration of Trehalose, Liver” value [3, 7] was 167.9 ± 24.6 nmol/g, the “brain exposure of Trehalose” value ([3]; IV Trehalose in combination with oral Miglustat, 180 min post-dose) was “about 10 nmol/g” and the “brain exposure of Trehalose” value ([3]; IV Trehalose, 180 min post-dose) was “about 7 nmol/g”. For the same compound, the “brain exposure of Trehalose” value ([3]; PO Trehalose) was 2.5 nmol/g, the “astroglial activation (GFAP staining) in the VPM/VPL region” value (Cln3^Δex7-8 mice; 12 months of age, oral, Miglustat even at low doses (FIG. 3E)) was “partially prevented” and the “astrocytosis (GFAP immunoreactivity) in the VPM/VPL” value (Cln3^Δex7-8 mice; FIG. 3A) was “did not have any observable effects”. For the same compound, the “astrocytosis (GFAP immunoreactivity) in the DLG” value (Cln3^Δex7-8 mice; FIG. 3B) was “prevented astrocytosis”.

Source: patent US20230321064A1, “Products for Treating the JNCL Disease” (Beyond Batten Disease Foundation, priority 2020, published 2023)
